In PMC4685510, “A Cell Biologist’s Field Guide to Aurora Kinase Inhibitors” (Frontiers in Oncology, 2015):
Like-named read-outs stand apart in the source and are kept apart here.

Tests used:
Experiment in all cases: biochemical
Assay type in all cases: biochemical
[1] = target: 363 human kinases (including Aurora A/B/C) (Homo sapiens, UniProt Q7KZI7); conditions: MARK2/PAR-1Ba; for remaining activity at 0.1 µM: 100 nM; for remaining activity at 0.1 µM / remaining activity at 0.5 µM: read-out: % Enzyme Activity (relative to DMSO controls)
Sequence of 363 human kinases (including Aurora A/B/C) (Homo sapiens, UniProt Q7KZI7) (Q7KZI7 whole entry): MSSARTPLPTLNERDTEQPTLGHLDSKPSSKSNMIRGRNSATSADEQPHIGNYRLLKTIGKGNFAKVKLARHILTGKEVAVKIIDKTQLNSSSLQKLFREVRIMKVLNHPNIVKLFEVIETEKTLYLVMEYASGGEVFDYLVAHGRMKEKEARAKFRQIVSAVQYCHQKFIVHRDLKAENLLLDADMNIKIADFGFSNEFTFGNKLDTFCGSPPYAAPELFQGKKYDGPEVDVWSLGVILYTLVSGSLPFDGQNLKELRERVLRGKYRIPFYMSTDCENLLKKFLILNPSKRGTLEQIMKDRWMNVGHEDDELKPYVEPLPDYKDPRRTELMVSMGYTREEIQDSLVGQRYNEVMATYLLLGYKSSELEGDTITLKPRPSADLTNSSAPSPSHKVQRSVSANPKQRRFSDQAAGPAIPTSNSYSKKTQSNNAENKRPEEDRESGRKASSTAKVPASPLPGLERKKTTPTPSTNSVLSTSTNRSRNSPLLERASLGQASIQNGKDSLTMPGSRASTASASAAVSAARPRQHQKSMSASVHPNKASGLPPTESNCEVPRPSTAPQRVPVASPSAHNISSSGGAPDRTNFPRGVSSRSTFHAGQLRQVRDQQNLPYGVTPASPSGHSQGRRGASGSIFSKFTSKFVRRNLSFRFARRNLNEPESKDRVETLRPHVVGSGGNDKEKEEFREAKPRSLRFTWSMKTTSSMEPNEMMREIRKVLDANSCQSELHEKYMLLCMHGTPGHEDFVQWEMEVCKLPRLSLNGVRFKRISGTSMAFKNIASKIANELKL
Excerpt: (§1) However, the Aurora A/B selectivity ratios derived from our in vitro and in vivo data can be compared to prioritize inhibitors.

[2] = target: 363 human kinases (including Aurora A/B/C) (Homo sapiens, UniProt Q9P289); conditions: MST4; for remaining activity at 0.1 µM: 100 nM; for remaining activity at 0.1 µM / remaining activity at 0.5 µM: read-out: % Enzyme Activity (relative to DMSO controls)
Sequence of 363 human kinases (including Aurora A/B/C) (Homo sapiens, UniProt Q9P289) (Q9P289 whole entry): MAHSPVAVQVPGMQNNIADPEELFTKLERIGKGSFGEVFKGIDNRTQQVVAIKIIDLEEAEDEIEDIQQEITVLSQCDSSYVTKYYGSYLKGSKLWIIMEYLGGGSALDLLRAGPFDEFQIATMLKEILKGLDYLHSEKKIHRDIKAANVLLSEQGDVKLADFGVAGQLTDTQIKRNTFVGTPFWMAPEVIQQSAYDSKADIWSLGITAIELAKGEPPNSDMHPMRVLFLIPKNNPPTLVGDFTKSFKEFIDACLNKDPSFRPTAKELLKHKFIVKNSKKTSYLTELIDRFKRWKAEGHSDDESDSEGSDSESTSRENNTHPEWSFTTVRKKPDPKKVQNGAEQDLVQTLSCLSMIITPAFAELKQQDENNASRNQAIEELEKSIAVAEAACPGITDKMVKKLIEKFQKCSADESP
Excerpt: as §1

[3] = target: T1, 363 human kinases (including Aurora A/B/C) (Homo sapiens, UniProt Q12851); conditions: GCK/MAP4K2; for remaining activity at 0.1 µM: 100 nM; for remaining activity at 0.1 µM / remaining activity at 0.5 µM: read-out: % Enzyme Activity (relative to DMSO controls)
T1 sequence (Q12851 1-820): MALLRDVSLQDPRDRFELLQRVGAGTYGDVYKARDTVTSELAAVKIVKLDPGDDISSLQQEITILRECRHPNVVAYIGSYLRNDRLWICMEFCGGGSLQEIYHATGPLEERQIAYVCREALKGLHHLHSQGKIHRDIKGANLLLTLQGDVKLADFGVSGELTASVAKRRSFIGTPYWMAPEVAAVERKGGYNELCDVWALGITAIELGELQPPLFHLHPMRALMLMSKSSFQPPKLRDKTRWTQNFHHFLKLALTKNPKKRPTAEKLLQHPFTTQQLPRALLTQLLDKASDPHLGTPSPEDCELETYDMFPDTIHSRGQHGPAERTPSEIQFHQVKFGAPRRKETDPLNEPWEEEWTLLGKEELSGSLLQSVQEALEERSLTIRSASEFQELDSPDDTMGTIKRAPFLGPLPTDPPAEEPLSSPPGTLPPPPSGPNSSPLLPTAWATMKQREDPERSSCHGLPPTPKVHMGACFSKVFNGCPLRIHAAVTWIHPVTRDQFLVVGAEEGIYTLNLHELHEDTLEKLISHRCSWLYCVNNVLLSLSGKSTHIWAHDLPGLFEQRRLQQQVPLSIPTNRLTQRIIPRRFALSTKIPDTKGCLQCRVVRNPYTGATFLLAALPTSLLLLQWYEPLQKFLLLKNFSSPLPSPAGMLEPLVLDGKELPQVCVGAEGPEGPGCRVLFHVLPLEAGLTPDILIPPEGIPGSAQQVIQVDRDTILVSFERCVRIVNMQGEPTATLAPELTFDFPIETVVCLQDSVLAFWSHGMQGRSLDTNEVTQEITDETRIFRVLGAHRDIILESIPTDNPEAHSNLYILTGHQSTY
Excerpt: as §1

[4] = target: 363 human kinases (including Aurora A/B/C) (Homo sapiens, UniProt P11362); conditions: for remaining activity at 0.1 µM / remaining activity at 0.5 µM: read-out: % Enzyme Activity (relative to DMSO controls)
Sequence of 363 human kinases (including Aurora A/B/C) (Homo sapiens, UniProt P11362) (P11362 22-822): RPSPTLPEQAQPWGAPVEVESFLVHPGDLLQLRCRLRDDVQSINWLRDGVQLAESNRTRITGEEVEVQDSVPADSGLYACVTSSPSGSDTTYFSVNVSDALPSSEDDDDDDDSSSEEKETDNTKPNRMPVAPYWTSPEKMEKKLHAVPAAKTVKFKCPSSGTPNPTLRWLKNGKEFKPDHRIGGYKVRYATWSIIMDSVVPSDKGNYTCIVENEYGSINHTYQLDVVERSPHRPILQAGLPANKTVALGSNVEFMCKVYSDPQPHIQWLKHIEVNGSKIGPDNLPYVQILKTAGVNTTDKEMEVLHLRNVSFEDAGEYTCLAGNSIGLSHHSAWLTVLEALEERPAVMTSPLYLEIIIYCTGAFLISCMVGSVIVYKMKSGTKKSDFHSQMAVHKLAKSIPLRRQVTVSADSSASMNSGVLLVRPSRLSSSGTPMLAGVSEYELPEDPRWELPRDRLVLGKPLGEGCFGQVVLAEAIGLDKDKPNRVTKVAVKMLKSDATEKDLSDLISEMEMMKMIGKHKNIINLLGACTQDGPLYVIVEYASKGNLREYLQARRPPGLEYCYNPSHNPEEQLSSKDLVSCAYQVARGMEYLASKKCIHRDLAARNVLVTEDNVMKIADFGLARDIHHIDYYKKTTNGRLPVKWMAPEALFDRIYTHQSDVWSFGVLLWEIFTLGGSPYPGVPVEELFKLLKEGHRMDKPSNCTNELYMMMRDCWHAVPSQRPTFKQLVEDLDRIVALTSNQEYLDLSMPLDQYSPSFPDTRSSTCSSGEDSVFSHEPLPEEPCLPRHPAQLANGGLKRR
Excerpt: as §1

[5] = target: T2, 363 human kinases (including Aurora A/B/C) (Homo sapiens, UniProt P54753); conditions: EPHB3, [ATP] 50 µM; for remaining activity at 0.1 µM: 100 nM; for remaining activity at 0.1 µM / remaining activity at 0.5 µM: read-out: % Enzyme Activity (relative to DMSO controls)
T2 sequence (P54753 34-998): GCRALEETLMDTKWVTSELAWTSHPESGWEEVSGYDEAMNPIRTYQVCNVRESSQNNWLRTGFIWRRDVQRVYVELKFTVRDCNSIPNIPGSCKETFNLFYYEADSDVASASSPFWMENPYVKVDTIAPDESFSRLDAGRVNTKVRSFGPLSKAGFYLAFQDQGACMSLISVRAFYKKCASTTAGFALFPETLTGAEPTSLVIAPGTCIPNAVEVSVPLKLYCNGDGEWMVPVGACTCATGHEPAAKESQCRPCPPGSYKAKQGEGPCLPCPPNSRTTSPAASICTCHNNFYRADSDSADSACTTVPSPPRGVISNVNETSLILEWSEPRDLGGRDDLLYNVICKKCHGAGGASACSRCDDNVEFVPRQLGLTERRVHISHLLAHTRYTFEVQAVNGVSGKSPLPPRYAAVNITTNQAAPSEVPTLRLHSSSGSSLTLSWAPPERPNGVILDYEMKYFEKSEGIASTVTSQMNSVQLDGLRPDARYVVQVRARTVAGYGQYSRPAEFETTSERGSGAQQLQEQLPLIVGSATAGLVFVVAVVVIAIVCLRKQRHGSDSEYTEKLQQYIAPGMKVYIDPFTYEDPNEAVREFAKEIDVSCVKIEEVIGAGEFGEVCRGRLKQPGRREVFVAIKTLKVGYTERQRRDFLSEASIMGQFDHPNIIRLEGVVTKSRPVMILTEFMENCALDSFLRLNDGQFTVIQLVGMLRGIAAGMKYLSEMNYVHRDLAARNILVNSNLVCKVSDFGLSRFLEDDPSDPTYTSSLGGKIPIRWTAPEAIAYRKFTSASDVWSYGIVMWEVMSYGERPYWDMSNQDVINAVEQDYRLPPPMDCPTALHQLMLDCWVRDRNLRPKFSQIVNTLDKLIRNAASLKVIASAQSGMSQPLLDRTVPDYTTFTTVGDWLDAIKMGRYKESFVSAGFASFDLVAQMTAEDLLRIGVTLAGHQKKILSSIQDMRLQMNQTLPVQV
Excerpt: as §1

[6] = target: 363 human kinases (including Aurora A/B/C) (Homo sapiens, UniProt P10721); conditions: c-Kit, [ATP] 100 µM; for remaining activity at 0.1 µM: 100 nM; for remaining activity at 0.1 µM / remaining activity at 0.5 µM: read-out: % Enzyme Activity (relative to DMSO controls)
Sequence of 363 human kinases (including Aurora A/B/C) (Homo sapiens, UniProt P10721) (P10721 26-976): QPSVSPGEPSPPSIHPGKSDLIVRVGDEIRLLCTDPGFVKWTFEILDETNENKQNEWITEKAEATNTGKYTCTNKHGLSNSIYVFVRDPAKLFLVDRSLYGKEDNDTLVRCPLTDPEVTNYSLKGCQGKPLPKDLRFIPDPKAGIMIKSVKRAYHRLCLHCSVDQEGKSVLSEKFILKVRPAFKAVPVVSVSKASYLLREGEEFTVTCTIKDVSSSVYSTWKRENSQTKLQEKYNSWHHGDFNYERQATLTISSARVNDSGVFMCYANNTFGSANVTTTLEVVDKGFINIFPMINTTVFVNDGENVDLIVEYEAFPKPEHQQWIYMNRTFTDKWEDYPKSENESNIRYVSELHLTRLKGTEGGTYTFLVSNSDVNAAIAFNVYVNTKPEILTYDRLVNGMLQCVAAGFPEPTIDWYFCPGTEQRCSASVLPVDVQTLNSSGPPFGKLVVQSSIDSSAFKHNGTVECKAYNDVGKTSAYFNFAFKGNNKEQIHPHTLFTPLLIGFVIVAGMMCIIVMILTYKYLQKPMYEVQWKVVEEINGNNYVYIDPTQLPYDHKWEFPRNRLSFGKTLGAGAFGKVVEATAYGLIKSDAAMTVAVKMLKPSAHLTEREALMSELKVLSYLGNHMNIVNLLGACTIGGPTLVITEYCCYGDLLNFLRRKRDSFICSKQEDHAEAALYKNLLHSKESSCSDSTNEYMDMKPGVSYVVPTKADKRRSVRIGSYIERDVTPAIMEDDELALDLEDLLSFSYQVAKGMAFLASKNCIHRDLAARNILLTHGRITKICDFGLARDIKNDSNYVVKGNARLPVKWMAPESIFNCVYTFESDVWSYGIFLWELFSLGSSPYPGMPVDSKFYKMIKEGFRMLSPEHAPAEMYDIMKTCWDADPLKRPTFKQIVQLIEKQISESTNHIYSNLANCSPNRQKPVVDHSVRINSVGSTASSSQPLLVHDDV
Excerpt: as §1

Row | Structure (SMILES) | remaining activity at 0.1 µM [1] | remaining activity at 0.1 µM [2] | remaining activity at 0.1 µM [3] | remaining activity at 0.1 µM [4] | remaining activity at 0.1 µM [5] | remaining activity at 0.1 µM [6] | % Enzyme Activity (relative to DMSO controls) ([1]; 500 nM) | remaining activity at 0.5 µM ([1]; 500 nM) | % Enzyme Activity (relative to DMSO controls) ([2]; 500 nM) | remaining activity at 0.5 µM ([2]; 500 nM) | % Enzyme Activity (relative to DMSO controls) ([3]; 500 nM) | remaining activity at 0.5 µM ([3]; 500 nM) | % Enzyme Activity (relative to DMSO controls) ([4]; FGFR1, [ATP] 5 µM, 500 nM) | remaining activity at 0.5 µM ([4]; FGFR1, [ATP] 5 µM, 500 nM) | % Enzyme Activity (relative to DMSO controls) ([5]; 500 nM) | remaining activity at 0.5 µM ([5]; 500 nM) | % Enzyme Activity (relative to DMSO controls) ([6]; 500 nM) | remaining activity at 0.5 µM ([6]; 500 nM) | remaining activity at 0.1 µM ([4]; FGFR1, [ATP] 5 µM, 100 nM)
1 | CCn1cc(-c2ccnc3[nH]c(-c4cccc(CN(C)C)c4)cc23)c(-c2ccc(NC(=O)N(C)C)cc2)n1 [GSK1070916] | 96.9% | 76.4% | 91.1% | 60.2% | 94.5% | 76.5% |  |  |  |  |  |  |  |  |  |  |  |  | 
2 | O=C(c1cccc(Cl)c1F)N1CCN(Cc2cccc(Nc3nccs3)n2)CC1 [MK-8745] |  |  |  |  |  |  | 103.22% | 104% | 78.55% | 87.2% | 91.89% | 93.7% | 93.82% | 97.1% | 92.59% | 93% | 86.62% | 88.2% | 
3 | O=C(O)[C@]1(Cc2cccc(Nc3nccs3)n2)CC[C@@H](Oc2cccc(Cl)c2F)CC1 [MK-5108] | 96.8% | 84% | 97.2% |  | 102% | 107% |  | 97.8% |  | 81.5% |  | 69.4% |  | 30.8% |  | 89.5% |  | 85.6% | 61.8%
